Tests used:
Gxs1 7-7 = assay: xylose depletion flask assay, medium spiked with increasing concentrations of xylitol; type: cell-based, Thraustochytrium species (ONC-T18); settings: 20 g/L xylose and 8 g/L glucose; for Biomass / Xylose used / Xylose used (%): after 144 hours
Protocol: The impact of xylitol concentration on glucose and xylose consumption was determined using 7-7, Gxs1 7-7, and 51-7 strains. […] In xylose depletion flask assays, Gxs1 7-7 was used with medium containing 20 g/L xylose and 8 g/L glucose and spiked with increasing concentrations of xylitol as shown in Table 4. The values in Table 4 are the total amount of biomass produced and xylose used after 144 hours. The glucose used amounts are shown at 48 hours.

[1] = system: 7-7, Gxs1 7-7, and 51-7 strains; assay: impact of xylitol concentration on glucose and xylose consumption; type: cell-based, Thraustochytrium species (ONC-T18); settings: FIGS. 2A-2D and Table 4
Protocol: The impact of xylitol concentration on glucose and xylose consumption was determined using 7-7, Gxs1 7-7, and 51-7 strains.

## OC[C@@H](O)[C@H](O)[C@@H](O)CO [Xylitol, xylitol]
Gxs1 7-7; 1 g L^−1 xylitol
  Glucose used (%) @48 hr: 99.9%
  Glucose used (g) @48 hr: 9.04 g
  Biomass: 7.225 g/L
  Xylose used: 11.03 g
  Xylose used (%): 56.2%
Gxs1 7-7; 5 g L^−1 xylitol
  Glucose used (%) @48 hr: 43.7%
  Glucose used (g) @48 hr: 3.99 g
  Biomass: 6.683 g/L
  Xylose used: 5.06 g
  Xylose used (%): 25.5%
Gxs1 7-7; 10 g L^−1 xylitol
  Glucose used (%) @48 hr: 18.6%
  Glucose used (g) @48 hr: 1.66 g
  Biomass: 6.425 g/L
  Xylose used: 4.24 g
  Xylose used (%): 22.0%
Gxs1 7-7; 15 g L^−1 xylitol
  Glucose used (%) @48 hr: 12.8%
  Glucose used (g) @48 hr: 1.13 g
  Biomass: 6.592 g/L
  Xylose used: 3.67 g
  Xylose used (%): 19.3%
[1]
  xylitol concentration to be kept in order to avoid growth inhibition: lower than 1 g/L
